Experimental data as given in ChEMBL document CHEMBL1146631, “Design and synthesis of novel CCR3 antagonists” (Bioorg Med Chem Lett, 2003).

What was measured:
[1] = biological target: T1, C-C chemokine receptor type 3 (Homo sapiens, UniProt P51677); assay: Binding affinity was determined towards C-C chemokine receptor type 3 using [125I]-labeled eotaxin as radioligand
T1 sequence (P51677 whole entry): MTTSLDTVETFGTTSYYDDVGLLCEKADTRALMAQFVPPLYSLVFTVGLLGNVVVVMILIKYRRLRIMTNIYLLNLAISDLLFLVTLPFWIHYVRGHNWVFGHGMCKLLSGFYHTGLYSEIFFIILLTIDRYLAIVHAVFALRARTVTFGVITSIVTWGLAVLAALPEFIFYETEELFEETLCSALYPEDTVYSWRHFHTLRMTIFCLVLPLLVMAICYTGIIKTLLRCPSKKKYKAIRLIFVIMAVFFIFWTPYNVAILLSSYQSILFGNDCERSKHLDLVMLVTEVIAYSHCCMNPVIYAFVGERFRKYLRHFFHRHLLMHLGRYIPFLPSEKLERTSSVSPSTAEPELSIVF

Rattus norvegicus = assay: Area under curve in rat by po administration at 0-24 hr; type: ADME, organism-based; design: time < 24 hr, route oral; conditions: in vivo
[2] = biological target: T1, C-C chemokine receptor type 3; assay: Compound was tested for its ability to inhibit C-C chemokine receptor type 3 receptor
[3] = Volume of distribution in rat by iv administration; type: ADME, organism-based; conditions: in vivo
[4] = Half-life period in rat by iv administration; type: ADME, organism-based; conditions: in vivo
[5] = Plasma clearance in rat by iv administration; type: ADME, organism-based

Row | IC50 [1] [µM] | IC50 [2] [µM] | SMILES | further results
1 | 7.8 | – | Cc1ccc(C(=O)NC(CC2CCN(Cc3ccc(C)c(C)c3)CC2)C(C)C)cc1 (stereo not drawn) | –
2 | > 200 | – | Cc1ccc(C(=O)NC(CC2CCC(Cc3ccc(Cl)c(Cl)c3)CC2)C(C)C)cc1 (stereo not drawn) | –
3 | 0.012 | 0.0044 | C[C@H](O)[C@H](CN1C2CCC1CC(Cc1ccc(Cl)cc1)C2)NC(=O)Nc1cccc(S(C)(=O)=O)c1 (stereo partly drawn) | AUC (Rattus norvegicus): 0.71 µg·h/mL
4 | > 200 | – | Cc1ccc(C(=O)NC(CC2CCN(Cc3ccccc3)CC2)C(C)C)cc1 (stereo not drawn) | –
5 | 0.011 | 0.0047 | COc1cc(NC(=O)N[C@H](C)CN2C3CCC2CC(Cc2ccc(Cl)cc2)C3)cc(OC)c1OC (stereo partly drawn) | AUC (Rattus norvegicus): 0.28 µg·h/mL
6 | 1.8 | – | Cc1ccc(C(=O)NC(CN2C3CCC2CC(Cc2ccc(Cl)c(Cl)c2)C3)C(C)C)cc1 (stereo not drawn) | Vd [3]: 30.1 L/kg; half-life [4]: 3.5 h; clearance [5]: 7.06 L/h/kg
7 | 0.5 | – | Cc1ccc(C(=O)NC(CN2CCC(Cc3ccc(Cl)c(Cl)c3)CC2)C(C)C)cc1 (stereo not drawn) | –
8 | 5.3 | – | Cc1ccc(C(=O)NC(CN2CC3CCC2CC3Cc2ccc(Cl)c(Cl)c2)C(C)C)cc1 (stereo not drawn) | –
9 | 1.7 | – | Cc1ccc(C(=O)NC(CC2CCN(Cc3ccc(Cl)c(Cl)c3)CC2)C(C)C)cc1 (stereo not drawn) | –
10 | 8.5 | – | Cc1ccc(C(=O)NC(CC2CCN(Cc3ccc([N+](=O)[O-])cc3)CC2)C(C)C)cc1 (stereo not drawn) | –
11 | 0.5 | – | COc1cc(NC(=O)NC(CC2CCN(Cc3ccc(Cl)c(Cl)c3)CC2)C(C)C)cc(OC)c1OC (stereo not drawn) | –
12 | 0.065 | 0.012 | C[C@H](CN1C2CCC1CC(Cc1ccc(Cl)cc1)C2)NC(=O)Nc1cccc(S(C)(=O)=O)c1 (stereo partly drawn) | –

Row | SMILES | IC50 [1] [µM] | IC50 [2] [µM] | further results
13 | COc1cc(NC(=O)N[C@@H](CN2C3CCC2CC(Cc2ccc(Cl)cc2)C3)[C@H](C)O)cc(OC)c1OC (stereo partly drawn) | 0.0082 | 0.0024 | AUC (Rattus norvegicus): 0.19 µg·h/mL
